Target: Human eIF4E (Homo sapiens (Human), UniProt P06730)
Test: Human eIF4E/4G binding assay (time-resolved fluorescence, HH-eIF4E and biotin-labeled 4G2 peptide)
Settings: inhibition of binding of His-tagged human eIF4E (aa 28-217) to biotin-labeled 4G2 peptide
Protocol: The protein was solubilized with 8 M urea and purified under denaturing conditions using nickel-charged HisTrap HP columns (GE Healthcare). The protein was refolded by diluting to approximately 0.25 mg/mL with 6 M urea, 20 mM Hepes pH 7.0, 500 mM NaCl, 1 mM DTT, 1 mM EDTA, and 0.5 M arginine.HCl, and then dialyzing overnight into the same buffer without the urea. The protein was further dialyzed into 20 mM Hepes pH 6.5, 50 mM NaCl, 1 mM EDTA, and 1 mM DTT, filtered, and then concentrated using Hitrap SP sepharose FF columns (GE Healthcare). The protein was dialyzed into 20 mM Hepes pH 7.0, 500 mM NaCl, 5 mM DTT, and 10% glycerol and stored at −80° C. until use. Test compounds (1.6 mM stock in DMSO) were diluted 3 fold in series in DMSO. Compound solutions were diluted 4 fold in Assay Buffer (50 mM sodium phosphate, pH 6.5, 50 mM KCl, 1 mM DTT and 0.5 mg/mL gammaglobulin). […] The samples were incubated at room temperature for 20 minutes. […] IC50 values were calculated using Condoseo software (Genedata AG).

Sequence of Human eIF4E (P06730 28-217): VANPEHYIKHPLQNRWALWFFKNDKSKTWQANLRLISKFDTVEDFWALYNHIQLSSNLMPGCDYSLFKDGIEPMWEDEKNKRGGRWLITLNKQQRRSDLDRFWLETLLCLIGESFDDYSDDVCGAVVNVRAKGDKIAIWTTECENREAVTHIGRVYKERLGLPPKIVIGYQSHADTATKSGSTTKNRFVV

Compound	IC50 [µM]
O=C(O)c1cc(-c2nc(-c3ccc(OC(F)(F)F)cc3)cs2)ccc1-c1ccccc1[N+](=O)[O-] [Example 2, 2′-Nitro-4-[4-(4-trifluoromethoxy-phenyl)-thiazol-2-yl]-biphenyl-2-carboxylic acid]	2.6
O=C(NCCCN1CCOCC1)c1ccc(-c2ccc(-c3nc(-c4ccc(Cl)c(Cl)c4)cs3)cc2C(=O)O)cc1 [Example 58, 4-[4-(3,4-Dichloro-phenyl)-thiazol-2-yl]-4′-(3-morpholin-4-yl-propylcarbamoyl)-biphenyl-2-carboxylic acid]	> 80
CN(C)CCCNC(=O)c1ccc(-c2ccc(-c3nc(-c4ccc(Cl)c(Cl)c4)cs3)cc2C(=O)O)cc1 [Example 48, 4-[4-(3,4-Dichloro-phenyl)-thiazol-2-yl]-4′-(3-dimethylamino-propylcarbamoyl)-biphenyl-2-carboxylic acid]	> 80
Cc1cscc1-c1ccc(-c2nc(-c3ccc(Cl)c(Cl)c3)cs2)cc1C(=O)O [Example 142, 5-[4-(3,4-Dichloro-phenyl)-thiazol-2-yl]-2-(4-methyl-thiophen-3-yl)-benzoic acid]	4.2
O=C(NCCc1cccnc1)c1ccc(-c2ccc(-c3nc(-c4ccc(Cl)c(Cl)c4)cs3)cc2C(=O)O)cc1 [Example 66, 4-[4-(3,4-Dichloro-phenyl)-thiazol-2-yl]-4′-(2-pyridin-3-yl-ethylcarbamoyl)-biphenyl-2-carboxylic acid]	9.6
O=C(O)c1cc(-c2nc(-c3cccnc3)cs2)ccc1-c1ccccc1[N+](=O)[O-] [Example 38, 2′-Nitro-4-(4-pyridin-3-yl-thiazol-2-yl)-biphenyl-2-carboxylic acid]	> 80
COc1ccc(-c2ccc(-c3nc(-c4ccc(Cl)c(Cl)c4)cs3)cc2C(=O)O)c([N+](=O)[O-])c1 [Example 28, 4-[4-(3,4-Dichloro-phenyl)-thiazol-2-yl]-4′-methoxy-2′-nitro-biphenyl-2-carboxylic acid]	3.2
O=Cc1ccccc1-c1ccc(-c2nc(-c3ccc(Cl)c(Cl)c3)cs2)cc1C(=O)O [Example 123, 4-[4-(3,4-Dichloro-phenyl)-thiazol-2-yl]-2′-formyl-biphenyl-2-carboxylic acid]	5.5
O=C(NCc1ccccc1F)c1ccc(-c2ccc(-c3nc(-c4ccc(Cl)c(Cl)c4)cs3)cc2C(=O)O)cc1 [Example 74, 4-[4-(3,4-Dichloro-phenyl)-thiazol-2-yl]-4′-(2-fluoro-benzylcarbamoyl)-biphenyl-2-carboxylic acid]	2.5
CCOc1ccc(-c2ccc(-c3nc(-c4ccc(Cl)c(Cl)c4)cs3)cc2C(=O)O)c(Cl)c1 [Example 89, 2′-Chloro-4-[4-(3,4-dichloro-phenyl)-thiazol-2-yl]-4′-ethoxy-biphenyl-2-carboxylic acid]	2
O=C(NCC1CCCO1)c1ccc(-c2ccc(-c3nc(-c4ccc(Cl)c(Cl)c4)cs3)cc2C(=O)O)cc1 (centres unmarked) [Example 61, 4-[4-(3,4-Dichloro-phenyl)-thiazol-2-yl]-4′-[(tetrahydro-furan-2-ylmethyl)-carbamoyl]-biphenyl-2-carboxylic acid]	5.5
O=C(O)c1cc(-c2nc(-c3ccc(Cl)c(Cl)c3)cs2)ccc1-c1cc(C(F)(F)F)ccc1[N+](=O)[O-] [Example 4, 4-[4-(3,4-Dichloro-phenyl)-thiazol-2-yl]-2′-nitro-5′-trifluoromethyl-biphenyl-2-carboxylic acid]	2
O=C(O)c1cc(-c2nc(-c3ccc(Cl)c(Cl)c3)cs2)ccc1-c1cc(F)ccc1F [Example 131, 4-[4-(3,4-Dichloro-phenyl)-thiazol-2-yl]-2′,5′-difluoro-biphenyl-2-carboxylic acid]	1.8
Cn1nccc1CNC(=O)c1ccc(-c2ccc(-c3nc(-c4ccc(Cl)c(Cl)c4)cs3)cc2C(=O)O)cc1 [Example 50, 4-[4-(3,4-Dichloro-phenyl)-thiazol-2-yl]-4′-[(2-methyl-2H-pyrazol-3-ylmethyl)-carbamoyl]-biphenyl-2-carboxylic acid]	7.8
CC(=O)c1sccc1-c1ccc(-c2nc(-c3ccc(Cl)c(Cl)c3)cs2)cc1C(=O)O [Example 119, 2-(2-Acetyl-thiophen-3-yl)-5-[4-(3,4-dichloro-phenyl)-thiazol-2-yl]-benzoic acid]	9.6
O=C(O)c1cc(-c2nc(-c3ccc(Cl)cc3)cs2)ccc1-c1ccccc1[N+](=O)[O-] [Example 13, 4-[4-(4-Chloro-phenyl)-thiazol-2-yl]-2′-nitro-biphenyl-2-carboxylic acid]	5.2
O=C(O)c1cc(-c2nc(-c3ccc(Cl)c(Cl)c3)cs2)ccc1-c1ccncc1 [Example 103, 5-[4-(3,4-Dichloro-phenyl)-thiazol-2-yl]-2-pyridin-4-yl-benzoic acid]	8.5
O=C(O)c1cc(-c2nc(-c3cc(C(F)(F)F)cc(C(F)(F)F)c3)cs2)ccc1-c1ccccc1[N+](=O)[O-] [Example 8, 4-[4-(3,5-Bis-trifluoromethyl-phenyl)-thiazol-2-yl]-2′-nitro-biphenyl-2-carboxylic acid]	2.5

Compound	IC50 [µM]
O=C(O)c1cc(-c2nc(-c3ccc(Cl)c(Cl)c3)cs2)ccc1-c1cc(O)ccc1Cl [Example 95, 2′-Chloro-4-[4-(3,4-dichloro-phenyl)-thiazol-2-yl]-5′-hydroxy-biphenyl-2-carboxylic acid]	3.4
O=C(O)c1cc(-c2nc(-c3ccc(Cl)c(Cl)c3)cs2)ccc1-c1cc(Cl)ccc1[N+](=O)[O-] [Example 14, 5′-Chloro-4-[4-(3,4-dichloro-phenyl)-thiazol-2-yl]-2′-nitro-biphenyl-2-carboxylic acid]	1.3
CCOc1ncc(-c2ccc(-c3nc(-c4ccc(Cl)c(Cl)c4)cs3)cc2C(=O)O)cn1 [Example 82, 5-[4-(3,4-Dichloro-phenyl)-thiazol-2-yl]-2-(2-ethoxy-pyrimidin-5-yl)-benzoic acid]	3.6
COc1cccc(Cl)c1-c1ccc(-c2nc(-c3ccc(Cl)c(Cl)c3)cs2)cc1C(=O)O [Example 90, 2′-Chloro-4-[4-(3,4-dichloro-phenyl)-thiazol-2-yl]-6′-methoxy-biphenyl-2-carboxylic acid]	1.8
COc1ccc(Cl)c(-c2ccc(-c3nc(-c4ccc(Cl)c(Cl)c4)cs3)cc2C(=O)O)c1 [Example 93, 2′-Chloro-4-[4-(3,4-dichloro-phenyl)-thiazol-2-yl]-5′-methoxy-biphenyl-2-carboxylic acid]	3
N#Cc1ccc(-c2ccc(-c3nc(-c4ccc(Cl)c(Cl)c4)cs3)cc2C(=O)O)cc1 [Example 106, 4′-Cyano-4-[4-(3,4-dichloro-phenyl)-thiazol-2-yl]-biphenyl-2-carboxylic acid]	7.6
O=C(O)c1cc(-c2nc(-c3ccc(Cl)c(Cl)c3)cs2)ccc1-c1ccccc1 [Example 151, 4-[4-(3,4-Dichloro-phenyl)-thiazol-2-yl]-biphenyl-2-carboxylic acid]	5.9
O=C(O)c1cc(-c2nc(-c3ccccc3C(F)(F)F)cs2)ccc1-c1ccccc1[N+](=O)[O-] [Example 5, 2′-Nitro-4-[4-(2-trifluoromethyl-phenyl)-thiazol-2-yl]-biphenyl-2-carboxylic acid]	23
O=C(NCc1ccccc1)c1ccc(-c2ccc(-c3nc(-c4ccc(Cl)c(Cl)c4)cs3)cc2C(=O)O)cc1 [Example 76, 4′-Benzylcarbamoyl-4-[4-(3,4-dichloro-phenyl)-thiazol-2-yl]-biphenyl-2-carboxylic acid]	2.3
O=C(O)c1cc(-c2nc(-c3ccc(Cl)c(Cl)c3)cs2)ccc1-c1ccsc1Cl [Example 145, 2-(2-Chloro-thiophen-3-yl)-5-[4-(3,4-dichloro-phenyl)-thiazol-2-yl]-benzoic acid]	2.2
CN1CCN(C(=O)c2ccc(-c3ccc(-c4nc(-c5ccc(Cl)c(Cl)c5)cs4)cc3C(=O)O)cc2)CC1 [Example 53, 4-[4-(3,4-Dichloro-phenyl)-thiazol-2-yl]-4′-(4-methyl-piperazine-1-carbonyl)-biphenyl-2-carboxylic acid]	> 80
N#Cc1cccc(-c2ccc(-c3nc(-c4ccc(Cl)c(Cl)c4)cs3)cc2C(=O)O)c1 [Example 107, 3′-Cyano-4-[4-(3,4-dichloro-phenyl)-thiazol-2-yl]-biphenyl-2-carboxylic acid]	3.2
O=C(O)c1cc(-c2nc(-c3ccc(Cl)c(Cl)c3)cs2)ccc1-c1cc(OC(F)(F)F)ccc1Cl [Example 88, 2′-Chloro-4-[4-(3,4-dichloro-phenyl)-thiazol-2-yl]-5′-trifluoromethoxy-biphenyl-2-carboxylic acid]	0.6
O=C(O)c1cc(-c2nc(-c3cccc(Cl)c3)cs2)ccc1-c1ccccc1[N+](=O)[O-] [Example 17, 4-[4-(3-Chloro-phenyl)-thiazol-2-yl]-2′-nitro-biphenyl-2-carboxylic acid]	3.1
COc1cccc(-c2ccc(-c3nc(-c4ccc(Cl)c(Cl)c4)cs3)cc2C(=O)O)n1 [Example 85, 5-[4-(3,4-Dichloro-phenyl)-thiazol-2-yl]-2-(6-methoxy-pyridin-2-yl)-benzoic acid]	9.7
O=C(O)c1cc(-c2nc(-c3ccc(Cl)c(Cl)c3)cs2)ccc1-c1cc(Cl)ccc1Cl [Example 148, 2′,5′-Dichloro-4-[4-(3,4-dichloro-phenyl)-thiazol-2-yl]-biphenyl-2-carboxylic acid]	1.7
O=C(O)c1cc(-c2nc(-c3ccc(Cl)c(Cl)c3)cs2)ccc1-c1ccccc1[N+](=O)[O-] [Example 15, 4-[4-(3,4-Dichloro-phenyl)-thiazol-2-yl]-2′-nitro-biphenyl-2-carboxylic acid]	2.8

From patent US9073881B2, “Benzoic acid derivatives” (HOFFMANN-LA ROCHE INC., priority 2011, dated 2015)
